Tests used:
[1] = test system: inflammatory cytokine production; assay: Anti-inflammatory evaluation of purine nucleotides in a similar experimental system; type: cell-based, human; conditions: similar experimental system to Example 1
Procedure: (§1) Normal human keratinocytes (NHEK; manufactured by Kurabo Industries, Ltd.) were seeded in a 96-well plate at a density of 2.5×10^4 cells/well and cultured at 37° C. for 24 hours. The medium was replaced with 100 μL of sample-containing medium (HuMedia-KG2; manufactured by Kurabo Industries, Ltd.) and cultured for 24 hours. After removing the sample-containing medium, the plate was washed with 100 μL of Hanks balanced salt solution (HBSS (−)) and irradiated with 20 mJ/cm^2 using a UVB lamp (TL20W/12RS; manufactured by PHILIPS). After washing with HBSS (−), the medium was replaced with 100 μL of fresh medium and cultured for 24 hours. After culturing, the culture supernatant was collected. The sample solutions used were 0.8 (mg/mL) of UMP,2Na 0.4, 0.8 (mg/mL) of CMP,2Na 0.4, 0.8 (mg/mL) of U:C=1:1 (mass ratio 1:1 mixture of UMP,2Na and CMP,2Na) 0.4, 0.8 (mg/mL) of U:C=4:1 (mass ratio 4:1 mixture of UMP,2Na and CMP,2Na) 0.4, and 0.8 (mg/mL) of U:C=1:4 (mass ratio 1:4 mixture of UMP,2Na and CMP,2Na) 0.4.
The culture supernatant of human keratinocytes was collected, and amounts of IL-1α, IL-6, and IL-8 were quantified by ELISA.

[2] = test system: IL-1α; assay: Anti-inflammatory evaluation using UVB-irradiated three-dimensional cultured human epidermis, IL-1α by ELISA; type: cell-based; conditions: UVB 600 mJ/cm^2, tested 0.125-1.0 w/v %, FIG. 4
Procedure: (§2) To reproduce the phenomenon that occurs in actual epidermis, three-dimensional cultured human epidermis was used to evaluate the suppression effect of cytidylic acid on inflammatory cytokines induced by UV irradiation. In addition, to verify the relationship between the amount of cytidylic acid and the suppression effect on inflammatory cytokine production, the effects of varying the amount of cytidylic acid were evaluated.
(§3) Three-dimensional cultured human epidermis (LabCyte EPI MODEL 24; manufactured by J TEC) was set in a 24-well plate to which 500 μL of the attached assay medium was added, and acclimated overnight at 37° C. 50 μL of sample-containing PBS (−) was applied from the stratum corneum side and cultured for 24 hours. After removing the sample-containing PBS (−), the plate was washed with PBS (−) and irradiated with 600 mJ/cm^2 using a UVB lamp (TL20W/12RS; manufactured by PHILIPS). The medium was replaced with a fresh medium, 50 μL of sample-containing PBS (−) was newly applied from the stratum corneum side, and further cultured for 48 hours. After culturing, the culture supernatant was collected. The concentrations of cytidylic acid in the respective samples were 0, 0.125, 0.25, 0.5, and 1.0 (w/v %), respectively. Each inflammatory cytokine contained in the supernatant was quantified by ELISA.

[3] = test system: IL-8; assay: Anti-inflammatory evaluation using UVB-irradiated three-dimensional cultured human epidermis, IL-8 by ELISA; type: cell-based; conditions: UVB 600 mJ/cm^2, tested 0.125-1.0 w/v %, FIG. 6
Procedure: as §2, §3

[4] = test system: IL-6; assay: Anti-inflammatory evaluation using UVB-irradiated normal human keratinocytes, IL-6 by ELISA; type: cell-based; conditions: NHEK, FIG. 2; for concentration dependence of the inhibitory effect on IL-6 / amount of IL-6 produced: UVB 20 mJ/cm^2, sample 0.4 and 0.8 mg/mL; for amount of IL-6 produced: culture supernatant
Procedure: as §1, with “The effects of using various nucleotides on photoaging of the skin were evaluated using normal human keratinocytes. The effects of various nucleotides on inflammatory cytokines induced by UV irradiation of normal human keratinocytes were evaluated. Known inflammatory cytokines IL-1α, IL-6, and IL-8 were used as the inflammatory cytokines to be evaluated. Normal” for “Normal”, “(-))” for “(−))”, “(T[…]/12RS;” for “(TL20W/12RS;”, “(-),” for “(−),”, “0.4. The culture supernatant of human keratinocytes was collected, and amounts of IL-1α, IL-6, and IL-8 were quantified by ELISA.” for “0.4.”

[5] = test system: IL-6; assay: Anti-inflammatory evaluation using UVB-irradiated three-dimensional cultured human epidermis, IL-6 by ELISA; type: cell-based; conditions: UVB 600 mJ/cm^2, tested 0.125-1.0 w/v %, FIG. 5
Procedure: as §2, §3

[6] = test system: IL-1α; assay: Anti-inflammatory evaluation using UVB-irradiated normal human keratinocytes, IL-1α by ELISA; type: cell-based; conditions: NHEK, UVB 20 mJ/cm^2, sample 0.4 and 0.8 mg/mL, FIG. 1; for amount of IL-1α produced: culture supernatant
Procedure: as §1, with “The effects of using various nucleotides on photoaging of the skin were evaluated using normal human keratinocytes. The effects of various nucleotides on inflammatory cytokines induced by UV irradiation of normal human keratinocytes were evaluated. Known inflammatory cytokines IL-1α, IL-6, and IL-8 were used as the inflammatory cytokines to be evaluated. Normal” for “Normal”, “(-))” for “(−))”, “(T[…]/12RS;” for “(TL20W/12RS;”, “(-),” for “(−),”, “0.4. The culture supernatant of human keratinocytes was collected, and amounts of IL-1α, IL-6, and IL-8 were quantified by ELISA.” for “0.4.”

[7] = test system: IL-8; assay: Anti-inflammatory evaluation using UVB-irradiated normal human keratinocytes, IL-8 by ELISA; type: cell-based; conditions: NHEK, FIG. 3; for concentration dependence of the inhibitory effect on IL-8 / amount of IL-8 produced: UVB 20 mJ/cm^2, sample 0.4 and 0.8 mg/mL; for amount of IL-8 produced: culture supernatant
Procedure: as §1, with “The effects of using various nucleotides on photoaging of the skin were evaluated using normal human keratinocytes. The effects of various nucleotides on inflammatory cytokines induced by UV irradiation of normal human keratinocytes were evaluated. Known inflammatory cytokines IL-1α, IL-6, and IL-8 were used as the inflammatory cytokines to be evaluated. Normal” for “Normal”, “(-))” for “(−))”, “(T[…]/12RS;” for “(TL20W/12RS;”, “(-),” for “(−),”, “0.4. The culture supernatant of human keratinocytes was collected, and amounts of IL-1α, IL-6, and IL-8 were quantified by ELISA.” for “0.4.”

[8] = UVB 20 mJ/cm^2, significant difference between uridylic acid and cytidylic acid

| Compound | effect of inhibiting inflammatory cytokine production, compared with cytidylic acid and uridylic acid [1] | concentration at which a significant IL-1α production inhibitory effect was observed [2] [%] | concentration at which a significant IL-8 production inhibitory effect was observed [3] [%] | concentration dependence of the inhibitory effect on IL-6 [4] | amount of IL-6 produced [4] | effect of inhibiting IL-6 production, compared with uridylic acid [4, 8] | concentration at which a significant IL-6 production inhibitory effect was observed [5] [%] | concentration dependence of the inhibitory effect on IL-1α [6] | amount of IL-1α produced [6] | concentration dependence of the inhibitory effect on IL-8 [7] | amount of IL-8 produced [7] | effect of inhibiting IL-8 production, compared with uridylic acid [7, 8] |
| --- | --- | --- | --- | --- | --- | --- | --- | --- | --- | --- | --- | --- |
| Nc1ncnc2c1ncn2[C@@H]1O[C@H](COP(=O)(O)O)[C@@H](O)[C@H]1O [adenylic acid] | only a lower effect of inhibiting inflammatory cytokine production than cytidylic acid and uridylic acid |  |  |  |  |  |  |  |  |  |  |  |
| Nc1ccn([C@@H]2O[C@H](COP(=O)(O)O)[C@@H](O)[C@H]2O)c(=O)n1 [cytidylic acid] |  | ≥ 0.25 | ≥ 0.125 | increased the inhibitory effect in a concentration-dependent manner | suppressed the amount of IL-6 produced | particularly remarkable effect of inhibiting IL-6 production | ≥ 0.125 | increased the inhibitory effect in a concentration-dependent manner | suppressed the amount of IL-1α produced | increased the inhibitory effect in a concentration-dependent manner | suppressed the amount of IL-8 produced | particularly remarkable effect of inhibiting IL-8 production |
| Nc1nc2c(ncn2[C@@H]2O[C@H](COP(=O)(O)O)[C@@H](O)[C@H]2O)c(=O)[nH]1 [guanylic acid] | only a lower effect of inhibiting inflammatory cytokine production than cytidylic acid and uridylic acid |  |  |  |  |  |  |  |  |  |  |  |
| O=c1ccn([C@@H]2O[C@H](COP(=O)(O)O)[C@@H](O)[C@H]2O)c(=O)[nH]1 [uridylic acid] |  |  |  | increased the inhibitory effect in a concentration-dependent manner | suppressed the amount of IL-6 produced |  |  | increased the inhibitory effect in a concentration-dependent manner | suppressed the amount of IL-1α produced | increased the inhibitory effect in a concentration-dependent manner | suppressed the amount of IL-8 produced |  |
